Patent US20210204549A1, “BACILLUS AMYLOLIQUEFACIENS AND NEONICOTINOIDS MIXTURES AND METHODS OF USE THEREOF” (Valent U.S.A. LLC, priority 2020, published 2021)

Test system: tomato spotted wilt virus ("TSWV")
Assay: Greenhouse test of in-furrow treatments on peanut plants infected with tomato spotted wilt virus
Format: in vivo
Settings: peanut plants (Arachis hypogaea), furrow spray; imidacloprid 254.85 g/HA; 63 days after treatment
Experimental: The following greenhouse test was conducted from May 31, 2018 to Oct. 22, 2018 in Tift County, Georgia. Peanut plants (Arachis hypogaea) were used in the test as the crop plant. 6 seeds were planted per foot per row giving 360 seeds per plot. The peanut plants were infected with tomato spotted wilt virus (“TSWV”). Furrows were sprayed with B. amyloliquefaciens strain PTA-4838, imidacloprid, fluopyram and/or Mycorrhizae consortium at the rates disclosed in Table 1 prior to seedling plating. The plants were then infected with TSWV. Number of live plants were counted at 63 days after treatment. Percent TSWV infection was calculated as percent of row feet infected per plot. All data was analyzed using Bartlett's test and with p value of […] for determining significance of the results.

## O=[N+]([O-])NC1=NCCN1Cc1ccc(Cl)nc1 [Imidacloprid, imidacloprid]
  % Control: 96.4a %
